Consider 7 molecules from US20240408085A1, “COMPOUND FOR DEGRADATION OF BCL-2 FAMILY PROTEINS AND MEDICAL APPLICATION THEREOF” (XIZANG HAISCO PHARMACEUTICAL CO., LTD., priority 2021, published 2024).

pIC50: −log10 of the molar value. Where only a bound is given, the exact number is not on record here.

The subject of the assay is MOLT-4 cells. Kind of assay: Cell proliferation activity in MOLT-4 cells (72 h, cell viability luminescence). Format: cell-based, human. Conditions: Homo sapiens, read-out: IC50 for the inhibition of MOLT-4 cell proliferation. In a few lines: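 Human acute lymphoblastic leukemia cells were seeded at 5×10^3 cells/well in RPMI-1640 with 10% FBS. They were treated with serially varied compound concentrations for 72 h at 37° C., 5% CO2. A luminescent viability reagent was used for read-out. IC50 was derived relative to vehicle control; maximum inhibition was the inhibition rate at the highest concentration.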

Consider `O=C1CCC(N2C(=O)c3ccc(N4CC(CN5CCN(CC[C@H](CSc6ccccc6)Nc6ccc(S(=O)(=O)NC(=O)c7ccc(N8CCN(CC9=C(c%10ccc(Cl)cc%10)CCCCC9)CC8)cc7)cc6S(=O)(=O)C(F)(F)F)CC5)C4)cc3C2=O)C(=O)N1` (stereo partly drawn) [Compound 44, 4-(4-((2-(4-chlorophenyl)cyclohept-1-en-1-yl)methyl)piperazin-1-yl)-N-((4-(((2R)-4-(4-((1-(2-(2,6-dioxopiperidin-3-yl)-1,3-dioxoisoindolin-5-yl)azetidin-3-yl)methyl)piperazin-1-yl)-1-(phenylthio)butan-2-yl)amino)-3-((trifluoromethyl)sulfonyl)phenyl)sulfonyl)benzamide], for which the pIC50 is above 6.30.

For the molecule `Cc1ncsc1-c1ccc([C@H](C)NC(=O)[C@@H]2C[C@@H](O)CN2C(=O)[C@@H](NC(=O)CCCCCC(=O)N2C[C@@H]3C[C@H]2CN3CC[C@H](CSc2ccccc2)Nc2ccc(S(=O)(=O)NC(=O)c3ccc(N4CCN(CC5=C(c6ccc(Cl)cc6F)CCC6(CC6)C5)CC4)cc3)cc2S(=O)(=O)C(F)(F)F)C(C)(C)C)cc1` [Compound 29, (2S,4R)-1-((S)-2-(7-((1S,4S)-5-((R)-3-((4-(N-(4-(4-((6-(4-chloro-2-fluorophenyl)spiro[2.5]oct-5-en-5-yl)methyl)piperazin-1-yl)benzoyl)sulfamoyl)-2-((trifluoromethyl)sulfonyl)phenyl)amino)-4-(phenylthio)butyl)-2,5-diazabicyclo[2.2.1]heptan-2-yl)-7-oxoheptanamido)-3,3-dimethylbutanoyl)-4-hydroxy-N—((S)-1-(4-(4-methylthiazol-5-yl)phenyl)ethyl)pyrrolidine-2-carboxamide], the pIC50 is above 6.30. Turning to `Cc1ncsc1-c1ccc([C@H](C)NC(=O)[C@@H]2C[C@@H](O)CN2C(=O)[C@@H](NC(=O)CCCCCCC(=O)N2C[C@H]3CN(CC[C@H](CSc4ccccc4)Nc4ccc(S(=O)(=O)NC(=O)c5ccc(N6CCN(CC7=C(c8ccc(Cl)cc8)CCCCC7)CC6)cc5)cc4S(=O)(=O)C(F)(F)F)C[C@H]3C2)C(C)(C)C)cc1` [Compound 42, cis-(2S,4R)-1-((S)-2-(8-(5-((R)-3-((4-(N-(4-(4-((2-(4-chlorophenyl)cyclohept-1-en-1-yl)methyl)piperazin-1-yl)benzoyl)sulfamoyl)-2-((trifluoromethyl)sulfonyl)phenyl)amino)-4-(phenylthio)butyl)hexahydropyrrolo[3,4-c]pyrrol-2(1H)-yl)-8-oxooctanamido)-3,3-dimethylbutanoyl)-4-hydroxy-N—((S)-1-(4-(4-methylthiazol-5-yl)phenyl)ethyl)pyrrolidine-2-carboxamide], the pIC50 is above 6.30. In the case of `O=C1CCC(N2C(=O)c3ccc(N4CCC(CN5CCN(CC[C@H](CSc6ccccc6)Nc6ccc(S(=O)(=O)NC(=O)c7ccc(N8CCN(CC9=C(c%10ccc(Cl)cc%10)CCCCC9)CC8)cc7)cc6S(=O)(=O)C(F)(F)F)CC5)CC4)cc3C2=O)C(=O)N1` (stereo partly drawn) [Compound 45, 4-(4-((2-(4-chlorophenyl)cyclohept-1-en-1-yl)methyl)piperazin-1-yl)-N-((4-(((2R)-4-(4-((1-(2-(2,6-dioxopiperidin-3-yl)-1,3-dioxoisoindolin-5-yl)piperidin-4-yl)methyl)piperazin-1-yl)-1-(phenylthio)butan-2-yl)amino)-3-((trifluoromethyl)sulfonyl)phenyl)sulfonyl)benzamide] it was above 6.30. Take `Cc1ncsc1-c1ccc([C@H](C)NC(=O)[C@@H]2C[C@@H](O)CN2C(=O)[C@@H](NC(=O)CCCCCC(=O)N2CCN(CC[C@H](CSc3ccccc3)Nc3ccc(S(=O)(=O)NC(=O)c4ccc(N5CCN(C/C6=C(\c7ccc(Cl)cc7)CCCCCC6)CC5)cc4)cc3S(=O)(=O)C(F)(F)F)CC2)C(C)(C)C)cc1` [Compound 43, (2S,4R)-1-((S)-2-(7-(4-((R)-3-((4-(N-(4-(4-((2-(4-chlorophenyl)cyclooct-1-en-1-yl)methyl)piperazin-1-yl)benzoyl)sulfamoyl)-2-((trifluoromethyl)sulfonyl)phenyl)amino)-4-(phenylthio)butyl)piperazin-1-yl)-7-oxoheptanamido)-3,3-dimethylbutanoyl)-4-hydroxy-N—((S)-1-(4-(4-methylthiazol-5-yl)phenyl)ethyl)pyrrolidine-2-carboxamide]: the pIC50 was above 6.30. In the case of `Cc1ncsc1-c1ccc([C@H](C)NC(=O)[C@@H]2C[C@@H](O)CN2C(=O)[C@@H](NC(=O)CCCCCC(=O)N2C[C@H]3CN(CC[C@H](CSc4ccccc4)Nc4ccc(S(=O)(=O)NC(=O)c5ccc(N6CCN(CC7=C(c8ccc(Cl)cc8F)CCCCC7)CC6)cc5)cc4S(=O)(=O)C(F)(F)F)C[C@H]3C2)C(C)(C)C)cc1` [Compound 39, cis-(2S,4R)-1-((S)-2-(7-(5-((R)-3-((4-(N-(4-(4-((2-(4-chloro-2-fluorophenyl)cyclohept-1-en-1-yl)methyl)piperazin-1-yl)benzoyl)sulfamoyl)-2-((trifluoromethyl)sulfonyl)phenyl)amino)-4-(phenylthio)butyl)hexahydropyrrolo[3,4-c]pyrrol-2(1H)-yl)-7-oxoheptanamido)-3,3-dimethylbutanoyl)-4-hydroxy-N—((S)-1-(4-(4-methylthiazol-5-yl)phenyl)ethyl)pyrrolidine-2-carboxamide], the pIC50 is above 6.30. In the case of `Cc1ncsc1-c1ccc([C@H](C)NC(=O)[C@@H]2C[C@@H](O)CN2C(=O)[C@@H](NC(=O)CCCCCC(=O)N2C[C@@H]3C[C@H]2CN3CC[C@H](CSc2ccccc2)Nc2ccc(S(=O)(=O)NC(=O)c3ccc(N4CCN(CC5=C(c6ccc(Cl)cc6F)CCC(C)(C)C5)CC4)cc3)cc2S(=O)(=O)C(F)(F)F)C(C)(C)C)cc1` [Compound 20, (2S,4R)-1-((S)-2-(7-((1S,4S)-5-((R)-3-((4-(N-(4-(4-((4′-chloro-2′-fluoro-4,4-dimethyl-3,4,5,6-tetrahydro-[1,1′-biphenyl]-2-yl)methyl)piperazin-1-yl)benzoyl)sulfamoyl)-2-((trifluoromethyl)sulfonyl)phenyl)amino)-4-(phenylthio)butyl)-2,5-diazabicyclo[2.2.1]heptan-2-yl)-7-oxoheptanamido)-3,3-dimethylbutanoyl)-4-hydroxy-N—((S)-1-(4-(4-methylthiazol-5-yl)phenyl)ethyl)pyrrolidine-2-carboxamide] it was above 6.30.
